The record followed here is patent publication US20240383954A1, “PEPTIDE INHIBITORS OF INTERLEUKIN-23 RECEPTOR AND THEIR USE TO TREAT INFLAMMATORY DISEASES” (Janssen Biotech, Inc., priority 2020, published 2024).

The target of this experiment is IL-23R (Homo sapiens, UniProt Q5VWK5). Description: cell-based. The conditions noted are these: PBMC pSTAT3 IC50 (nM), PBMCs from healthy donors, IL-23 5 ng/mL, 30 minutes, phosphorylated STAT3.

SMILES strings stand for the structures. Starred links: 1 amine or outer side, 2 acyl side, 3 side chain; linkers in the order of their positions; H or OH if unused. Positions of bridges follow the written chain, without caps; N, C: chain ends. Non-standard residues stand in square brackets, D forms with d. Residues, ends and D or L forms follow the SMILES beside them. *: point of attachment. X3 = C[C@H](c1ccc2ccccc2c1)[C@H](N[*:1])C(=O)[*:2]; Phe(3,4-(OMe)2) = COc1ccc(C[C@H](N)C(=O)O)cc1OC; Abu(4-yl) = O=C([C@H](CC[*:3])N[*:1])[*:2]; 2Nal = N[C@@H](Cc1ccc2ccccc2c1)C(=O)O; Propanoyl(3,3,3-F3) = O=C(CC(F)(F)F)*; AEF = NCCOc1ccc(C[C@H](N)C(=O)O)cc1; Cyclopropanecarbonyl = O=C(C1CC1)*; αMeF = C[C@](N)(Cc1ccccc1)C(=O)O; αMeE = C[C@](N)(CCC(=O)O)C(=O)O; Pen = CC(C)(S)[C@H](N)C(=O)O; αMeK = C[C@](N)(CCCCN)C(=O)O; Thp = NC1(C(=O)O)CCOCC1; Aib = CC(C)(N)C(=O)O; Propionyl = CCC(=O)*; Butyryl = CCCC(=O)*
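Further: cryopreserved PBMCs stimulated at 37 °C in 5% CO2, then lysed, with phosphorylated STAT3 quantified in lysates using a phospho-STAT panel kit.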

Sequence of IL-23R (Q5VWK5 24-629): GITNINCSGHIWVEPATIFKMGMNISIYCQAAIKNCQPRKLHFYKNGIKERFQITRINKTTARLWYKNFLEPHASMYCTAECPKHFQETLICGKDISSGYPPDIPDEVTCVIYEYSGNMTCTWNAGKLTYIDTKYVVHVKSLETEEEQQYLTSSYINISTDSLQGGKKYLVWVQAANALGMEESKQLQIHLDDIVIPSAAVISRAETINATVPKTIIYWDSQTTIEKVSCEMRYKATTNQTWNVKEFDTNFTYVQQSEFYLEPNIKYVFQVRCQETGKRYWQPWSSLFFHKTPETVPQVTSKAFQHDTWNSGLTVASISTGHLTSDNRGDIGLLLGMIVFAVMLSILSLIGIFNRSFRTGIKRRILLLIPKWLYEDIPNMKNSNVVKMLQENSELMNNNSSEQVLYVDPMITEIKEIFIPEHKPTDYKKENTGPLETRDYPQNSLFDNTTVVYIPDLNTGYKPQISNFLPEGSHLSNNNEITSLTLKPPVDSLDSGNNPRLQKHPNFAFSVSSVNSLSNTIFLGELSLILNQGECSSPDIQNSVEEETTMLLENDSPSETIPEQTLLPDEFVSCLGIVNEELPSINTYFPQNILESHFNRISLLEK
Experimental: Cryopreserved peripheral blood mononuclear cells (PBMCs) from healthy donors were thawed and washed twice in ImmunoCult-XF T cell expansion medium (XF-TCEM) supplemented with CTL anti-aggregate wash. […] The cells were stimulated with cytokine for 30 minutes at 37° C. in 5% CO2, transferred onto ice for 10 minutes, and lysed. Cell lysates were stored at −80° C. until phosphorylated STAT3 was measured using the phospho-STAT panel kit (Meso Scale Discovery, K15202D).

What is called IC50 is the concentration needed to halve the response being measured. On to `CC(=O)N[C@H](CCCNC(=N)N)C(=O)N[C@H]1CCSC[C@@H](C(=O)N[C@@H](Cc2ccc(OCCN)cc2)C(=O)N[C@@H](Cc2ccc3ccccc3c2)C(=O)NC2(C(=O)N[C@@H](CCC(=O)O)C(=O)N[C@@H](CC(N)=O)C(=O)N[C@@](C)(Cc3ccc4ccccc4c3)C(N)=O)CCOCC2)NC(=O)[C@H](CCC(N)=O)NC(=O)[C@H](Cc2c[nH]c3ccccc23)NC(=O)[C@H]([C@@H](C)O)NC(=O)[C@H](CCC(N)=O)NC1=O` [Compound 80, Ac-[(D)Arg]-[Abu]-Q-T-W-Q-[Cys]-Phe[4-(2-aminoethoxy)]-[2-Nal]-[THP]-E-N-[aMe(2-Nal)]-NH2], for which inhibition was half-maximal at 46 nM (IC50). As for `CC(=O)NCCCC[C@@H]1NC(=O)[C@H](Cc2c[nH]c3c(C)cccc23)NC(=O)[C@H]([C@@H](C)O)NC(=O)[C@H](CC(N)=O)NC(=O)[C@@H](NC(C)=O)C(C)(C)SSC(C)(C)[C@@H](C(=O)N[C@@H](Cc2ccc(OCCN)cc2)C(=O)N[C@@H](Cc2ccc3ccccc3c2)C(=O)NC2(C(=O)N[C@@H](CCCCNC(=O)C(C)(C)C)C(=O)N[C@@H](CC(N)=O)C(=O)NC3(C(N)=O)CCOCC3)CCOCC2)NC1=O` [Compound 141, Ac-[Pen]-N-T-[W(7-Me)]-[Lys(Ac)]-[Pen]-Phe[4-(2-aminoethoxy)]-[2-Nal]-[THP]-[Lys(COtBu)]-N-[THP]-NH2], the figure is 3.7 nM.

Compound `CCCC(=O)NCCCC[C@H](NC(=O)C1(NC(=O)[C@H](Cc2ccc3ccccc3c2)NC(=O)[C@H](Cc2ccc(OCCN)cc2)NC(=O)[C@H]2NC(=O)[C@H](CCC(N)=O)NC(=O)[C@H](Cc3c[nH]c4ccccc34)NC(=O)[C@H]([C@@H](C)O)NC(=O)[C@H](CCC(N)=O)NC(=O)[C@@H](NC(=O)[C@@H](CCCNC(=N)N)NC(C)=O)C(C)(C)SSC2(C)C)CCOCC1)C(=O)N[C@@H](CC(N)=O)C(=O)NC1(C(N)=O)CCOCC1` [Compound 52, Ac-[(D)Arg]-[Pen]-Q-T-W-Q-[Pen]-Phe[4-(2-aminoethoxy)]-[2-Nal]-[THP]-[Lys(COPr)]-N-[THP]-NH2] yielded an IC50 of 16 nM. As for `CC(=O)N[C@H](CCCNC(=N)N)C(=O)N[C@H]1CCSC[C@@H](C(=O)N[C@@H](Cc2ccc(OCCN)cc2)C(=O)N[C@@H](Cc2ccc3ccccc3c2)C(=O)NC2(C(=O)N[C@@](C)(CCC(=O)O)C(=O)N[C@@H](CC(N)=O)C(=O)N[C@@H](Cc3ccccc3)C(=O)NC(C)(C)C(=O)N[C@@](C)(CCCCN)C(N)=O)CCOCC2)NC(=O)[C@H](CCC(N)=O)NC(=O)[C@H](Cc2c[nH]c3ccccc23)NC(=O)[C@H]([C@@H](C)O)NC(=O)[C@H](CCC(N)=O)NC1=O` [Compound 43, Ac-[(D)Arg]-[Abu]-Q-T-W-Q-[Cys]-Phe[4-(2-aminoethoxy)]-[2-Nal]-[THP]-[aMeGlu]-N-F-[Aib]-[a-MeLys]-NH2] (Ac-[dR][Abu(4-yl)]QTWQC[AEF][2Nal][Thp][αMeE]NF[Aib][αMeK]-NH2; thioether 2-7), the figure is 8.2 nM; as for `CC(=O)NCCCC[C@@H]1NC(=O)[C@H](Cc2c[nH]c3c(C)cccc23)NC(=O)[C@H]([C@@H](C)O)NC(=O)[C@H](CC(N)=O)NC(=O)[C@@H](NC(C)=O)C(C)(C)SSC(C)(C)[C@@H](C(=O)N[C@@H](Cc2ccc(OCCN)cc2)C(=O)N[C@@H](Cc2ccc3ccccc3c2)C(=O)NC2(C(=O)N[C@@H](CCCCNC(=O)C(C)(C)C)C(=O)N[C@@H](CC(N)=O)C(=O)N[C@@](C)(Cc3ccccc3)C(N)=O)CCOCC2)NC1=O` [Compound 139, Ac-[Pen]-N-T-[W(7-Me)]-[Lys(Ac)]-[Pen]-Phe[4-(2-aminoethoxy)]-[2-Nal]-[THP]-[Lys(COtBu)]-N-[a-MePhe]-NH2], 6.6 nM; as for `CC(=O)N[C@H](CCCNC(=N)N)C(=O)N[C@@H]1C(=O)N[C@@H](CCC(N)=O)C(=O)N[C@@H]([C@@H](C)O)C(=O)N[C@@H](Cc2c[nH]c3ccccc23)C(=O)N[C@@H](CCC(N)=O)C(=O)N[C@H](C(=O)N[C@@H](Cc2ccc(OCCN)cc2)C(=O)N[C@@H](Cc2ccc3ccccc3c2)C(=O)NC2(C(=O)N[C@@H](CCCCNC(=O)C3CC3)C(=O)N[C@@H](CC(N)=O)C(=O)N[C@@H](Cc3ccccc3)C(N)=O)CCOCC2)C(C)(C)SSC1(C)C` [Compound 55, Ac-[(D)Arg]-[Pen]-Q-T-W-Q-[Pen]-Phe[4-(2-aminoethoxy)]-[2-Nal]-[THP]-[Lys(COcPr)]-N-F-NH2] (Ac-[dR][Pen]QTWQ[Pen][AEF][2Nal][Thp]K(Cyclopropanecarbonyl)NF-NH2; disulfide 2-7), 25 nM. As for `CC(=O)NCCCC[C@@H]1NC(=O)[C@H](Cc2c[nH]c3ccccc23)NC(=O)[C@H]([C@@H](C)O)NC(=O)[C@H](CC(N)=O)NC(=O)[C@@H](NC(C)=O)C(C)(C)SSC(C)(C)[C@@H](C(=O)N[C@@H](Cc2ccc(OCCN)cc2)C(=O)N[C@@H](Cc2ccc3ccccc3c2)C(=O)N[C@@](C)(CCCCN)C(=O)N[C@@H](CCCCNC(C)=O)C(=O)N[C@@H](CC(N)=O)C(=O)NC2(C(N)=O)CCOCC2)NC1=O` [Compound 95, Ac-[Pen]-N-T-W-[Lys(Ac)]-[Pen]-Phe[4-(2-aminoethoxy)]-[2-Nal]-[a-MeLys]-[Lys(Ac)]-N-[THP]-NH2], the figure is 22 nM; as for `COc1ccc(C[C@H](NC(=O)[C@@H]2CSCC[C@H](NC(=O)[C@@H](CCCNC(=N)N)NC(C)=O)C(=O)N[C@@H](CCC(N)=O)C(=O)N[C@@H]([C@@H](C)O)C(=O)N[C@@H](Cc3c[nH]c4ccccc34)C(=O)N[C@@H](CCC(N)=O)C(=O)N2)C(=O)N[C@@H](Cc2ccc3ccccc3c2)C(=O)NC2(C(=O)N[C@@](C)(CCC(=O)O)C(=O)N[C@@H](CC(N)=O)C(=O)N[C@@](C)(Cc3ccccc3)C(N)=O)CCOCC2)cc1OC` [Compound 41, Ac-[(D)Arg]-[Abu]-Q-T-W-Q-[Cys]-[Phe(3,4-diOMe)]-[2-Nal]-[THP]-[aMeGlu]-N-[a-MePhe]-NH2] (Ac-[dR][Abu(4-yl)]QTWQC[Phe(3,4-(OMe)2)][2Nal][Thp][αMeE]N[αMeF]-NH2; thioether 2-7), 2500 nM; as for `CCC(=O)N[C@H](CCCNC(=N)N)C(=O)N[C@@H]1C(=O)N[C@@H](CCC(N)=O)C(=O)N[C@@H]([C@@H](C)O)C(=O)N[C@@H](Cc2c[nH]c3ccccc23)C(=O)N[C@@H](CCC(N)=O)C(=O)N[C@H](C(=O)N[C@@H](Cc2ccc(OCCN)cc2)C(=O)N[C@@H](Cc2ccc3ccccc3c2)C(=O)NC2(C(=O)N[C@@H](CCC(=O)O)C(=O)N[C@@H](CC(N)=O)C(=O)N[C@@](C)(Cc3ccccc3)C(N)=O)CCOCC2)C(C)(C)SSC1(C)C` [Compound 3, [Propionic_acid]-[(D)Arg]-[Pen]-Q-T-W-Q-[Pen]-Phe[4-(2-aminoethoxy)]-[2-Nal]-[THP]-E-N-[a-MePhe]-NH2] (Propionyl-[dR][Pen]QTWQ[Pen][AEF][2Nal][Thp]EN[αMeF]-NH2; disulfide 2-7), 40 nM.

For the compound `CC(=O)NCCCC[C@@H]1NC(=O)[C@H](Cc2c[nH]c3c(C)cccc23)NC(=O)[C@H]([C@@H](C)O)NC(=O)[C@H](CC(N)=O)NC(=O)[C@@H](NC(C)=O)C(C)(C)SSC(C)(C)[C@@H](C(=O)N[C@@H](Cc2ccc(OCCN)cc2)C(=O)N[C@@H](Cc2ccc3ccccc3c2)C(=O)N[C@@](C)(CCCCN)C(=O)N[C@@H](CCCCNC(C)=O)C(=O)N[C@@H](CC(N)=O)C(=O)NC2(C(=O)N[C@H](Cc3ccc(O)cc3)C(N)=O)CCOCC2)NC1=O` [Compound 107, Ac-[Pen]-N-T-[W(7-Me)]-[Lys(Ac)]-[Pen]-Phe[4-(2-aminoethoxy)]-[2-Nal]-[a-MeLys]-[Lys(Ac)]-N-[THP]-[(D)Tyr]-NH2], 11 nM corresponded to half-maximal inhibition (IC50). For `C[C@@H](O)[C@@H]1NC(=O)[C@H](CCC(N)=O)NC(=O)[C@@H](NC(=O)[C@@H](CCCNC(=N)N)NC(=O)CC(F)(F)F)C(C)(C)SSC(C)(C)[C@@H](C(=O)N[C@@H](Cc2ccc(OCCN)cc2)C(=O)N[C@@H](Cc2ccc3ccccc3c2)C(=O)NC2(C(=O)N[C@@H](CCC(=O)O)C(=O)N[C@@H](CC(N)=O)C(=O)NC3(C(N)=O)CCOCC3)CCOCC2)NC(=O)[C@H](CCC(N)=O)NC(=O)[C@H](Cc2c[nH]c3ccccc23)NC1=O` [Compound 5, [3,3,3-Trifluoropropionic acid]-[(D)Arg]-[Pen]-Q-T-W-Q-[Pen]-Phe[4-(2-aminoethoxy)]-[2-Nal]-[THP]-E-N-[THP]-NH2] ({Propanoyl(3,3,3-F3)}-[dR][Pen]QTWQ[Pen][AEF][2Nal][Thp]EN[Thp]-NH2; disulfide 2-7) the value was 4.7 nM; for `CCC(=O)N[C@H](CCCNC(=N)N)C(=O)N[C@@H]1C(=O)N[C@@H](CCC(N)=O)C(=O)N[C@@H]([C@@H](C)O)C(=O)N[C@@H](Cc2c[nH]c3ccccc23)C(=O)N[C@@H](CCC(N)=O)C(=O)N[C@H](C(=O)N[C@@H](Cc2ccc(OCCN)cc2)C(=O)N[C@H](C(=O)NC2(C(=O)N[C@@H](CCC(=O)O)C(=O)N[C@@H](CC(N)=O)C(=O)NC3(C(N)=O)CCOCC3)CCOCC2)[C@H](C)c2ccc3ccccc3c2)C(C)(C)SSC1(C)C` [Compound 307, EtCO-r-Pen-Q-T-W-Q-Pen-AEF-bMe2Nal(2S,3R)-THP-E-N-THP---CONH2] (Propionyl-[dR][Pen]QTWQ[Pen][AEF][X3][Thp]EN[Thp]-NH2; disulfide 2-7), 52 nM.

For the compound `CCCC(=O)NCCCC[C@H](NC(=O)C1(NC(=O)[C@H](Cc2ccc3ccccc3c2)NC(=O)[C@H](Cc2ccc(OCCN)cc2)NC(=O)[C@H]2NC(=O)[C@H](CCC(N)=O)NC(=O)[C@H](Cc3c[nH]c4ccccc34)NC(=O)[C@H]([C@@H](C)O)NC(=O)[C@H](CCC(N)=O)NC(=O)[C@@H](NC(=O)[C@@H](CCCNC(=N)N)NC(C)=O)C(C)(C)SSC2(C)C)CCOCC1)C(=O)N[C@@H](CC(N)=O)C(=O)N[C@@H](Cc1ccccc1)C(N)=O` [Compound 58, Ac-[(D)Arg]-[Pen]-Q-T-W-Q-[Pen]-Phe[4-(2-aminoethoxy)]-[2-Nal]-[THP]-[Lys(COPr)]-N-F-NH2] (Ac-[dR][Pen]QTWQ[Pen][AEF][2Nal][Thp]K(Butyryl)NF-NH2; disulfide 2-7), the IC50 is 35 nM.
